Earlier results as cited in US20090118293A1 (priority 2004, published 2009).
Counter-ions that a name gives are not always drawn.

Structure (SMILES)	Solubility in alcohol (alcohol)	Solubility in ether (ether)	Solubility in water	Solubility in organic solvents (organic solvents such as ethanol, ether and chloroform)
NNc1nncc2ccccc12 [hydralazine hydrochloride]	slightly soluble	very slightly soluble	soluble	
O=[N+]([O-])O[C@H]1CO[C@H]2[C@@H]1OC[C@H]2O[N+](=O)[O-] [isosorbide dinitrate, 1,4,3,6-dianhydro-D-glucitol-2,5-dinitrate]			sparingly soluble	freely soluble
